Here are results for 4 molecules from US8946441B2, “Polymorphs of an active pharmaceutical ingredient” (Sandoz AG, priority 2010, dated 2015).

Molecules are shown by their SMILES. ≈ marks a conversion by molar mass, not a printed value.

A short description of data set [1]: Solubility determination of form I and form A in methanol/water (1:1 v/v), UV-spectrophotometry at 314 nm. The data set is classed as physicochemical. The conditions noted are these: MeOH/H2O 50%:50% v/v, 5 to 180 min, FIG. 8. As for the experimental part:
25 mg of Febuxostat form I or form A, obtained according to the procedure described in EP1020454 were stirred in a mixture of 20 ml of methanol and water (1:1 v/v). 1 ml of the suspension was withdrawn from each suspension within a time range of 5 to 180 min with the aid of a volumetric pipette and filtered. The filtrate was diluted to 25 ml with a 50% (v/v) methanol/water mixture and the concentration was determined by UV-spectrophotometry at 314 nm (apparatus: Shimadzu UV 1800).
A calibration curve was determined based on a series of known concentrations in the same solvent system.

A short description of data set [2]: Moisture sorption/desorption isotherm (SPS-11 moisture sorption analyzer). The note with it: for hygroscopicity: 0% to 90% RH, 25°C. Type of data set: physicochemical. How it is done: The moisture sorption/desorption isotherms were recorded with a SPS-11 moisture sorption analyzer (MD Messtechnik, Ulm, D). […] The equilibrium condition for each step was set to a mass constancy of ±0.01% over 30 min. The temperature was 25±0.1° C.

Data set [3] is described as follows: Water content according to Karl Fischer. The data set is classed as physicochemical. The note with it: stored at 20° C., ambient pressure, 0% up to 90% relative humidity.
Data set [4] is described as follows: Polymorphic stability on storage. Type of data set: physicochemical.
A short description of data set [5]: Kinetics of conversion to hemihydrate G in a mix of methanol and water. The data set is classed as physicochemical. The source says:
The solvent system methanol/water represents a model for the dissolution of solid states of Febuxostat, with the hemihydrate G representing a thermodynamic very stable form with low solubility in aqueous systems.

The conditions of data set [6]: form A, prior art references (EP1020454, US 7,361,676); cited from earlier work.

With `Cc1nc(-c2ccc(OCC(C)C)c(C#N)c2)sc1C(=O)O` [form I, 2-(3-cyano-4-isobutyloxy-phenyl)-4-methyl-5-thiazolecarboxylic acid], the “increase in solubility compared to form A” value in data set [1] is recorded as “approximately 20%”. Besides, in data set [2] (listed as polymorph I), the hygroscopicity entry is on record as “nonhygroscopic”. The “water content (KF)” value in data set [3] is on record as “below 0.1%”. For the same molecule, the “polymorphic stability on storage” value in data set [4] (stress conditions, 40° C. for 3 months) was “does not change its polymorphic state properties”. In data set [5], the “kinetics of conversion to hemihydrate G compared to anhydrate A” value is “slower”.

Regarding `Cc1nc(-c2ccc(OCC(C)C)c(C#N)c2)sc1C(=O)O` [form A, 2-(3-cyano-4-isobutyloxy-phenyl)-4-methyl-5-thiazolecarboxylic acid], the solubility in data set [6] is 0.22 mg/mL (≈ 695 µM).

`Cc1nc(-c2ccc(OCC(C)C)c(C#N)c2)sc1C(=O)O` [Form II, 2-(3-cyano-4-isobutyloxy-phenyl)-4-methyl-5-thiazolecarboxylic acid]: the hygroscopicity result in data set [2] is “non hygroscopic”. In addition, in data set [2] (up to a relative humidity of 90%), the water uptake entry was “no significant water uptake”. Also, in data set [4] (ambient temperature for 6 weeks), the “polymorphic stability on storage” value is “does not convert to another polymorphic form”.

For the molecule `Cc1nc(-c2ccc(OCC(C)C)c(C#N)c2)sc1C(=O)O` [tert.-amylalcohol solvate, 2-(3-cyano-4-isobutyloxy-phenyl)-4-methyl-5-thiazolecarboxylic acid], the stability on storage result in data set [4] (ambient conditions in open atmosphere for 5 weeks) was “stable”.
